The results in this text go back to PMC2904697, “A Screen for Kinetochore-Microtubule Interaction Inhibitors Identifies Novel Antitubulin Compounds” (PLoS ONE, 2010).

The test system of data set [1] is HeLa cells. The data set is described as follows: Ability of the compound to enter cells. The class given is cell-based, human. An excerpt:
During the last twenty-five years antispindle drugs have been used with great success in the fight against cancer. However, as cancer cells are developing resistance against these drugs, there is an urgent need for compounds targeting alternative mitotic targets. As kinetochores orchestrate chromosome segregation and comprise >100 proteins, they are appealing mitosis-specific drug targets. The high antitumor activity of compounds inhibiting kinetochore regulators (Aurora kinase, PLK1) and the kinetochore-associated kinesin CENP-E supports the concept of targeting kinetochore function to eradicate proliferating cells, [9], [19]. The complexity of kinetochores, the lack of insight into intrakinetochore protein-protein contacts and protein-activity relationships, as well as the difficulty to produce kinetochore subunits in large quantities for use in in vitro screens has long hampered the conversion of structural kinetochore components into anticancer drug targets. […] As the Ndc80 complex can be produced recombinantly in high quantity and because the recombinant complex is fully active as shown following injection in cells we focused on this complex to screen for inhibitors of kinetochore-MT binding. […]

Data set [2] has as its system recombinant CLIP-170^488 binding to taxol-stabilized MTs. The data set is described as follows: CLIP-170^488 binding to taxol-stabilized MTs (specificity control). To be noted: compound B at 50 µmol/l. An excerpt: Figure 2 Compound B prevents the recombinant Ndc80 kinetochore complex from binding to taxol-stabilized microtubules. Effect of compound B (50 µmol/l) on binding of the Ndc80^488 complex to rhodamine-labeled, taxol-stabilized MTs as assayed using inverted wide-field fluorescence microscopy. The scale bar represents 4 µm (A). Structure of compound B; 6-furan-2-yl-3-methyl-4-oxo-4,5,6,7-tetrahydro-1H-indole-2-carboxylic acid (tetrahydro-furan-2-yl)methyl ester (B). Measurement of the IC50 value of compound B using total internal reflection fluorescence microscopy. The scale bar represents 4 µm (C). Compound B (50 µmol/l) prevented MT-associating protein CLIP-170^488, used as a specificity control, from binding to taxol-stabilized MTs. The scale bar represents 4 µm (D). […] The scale bar represents 4 µm (E).
A compound inhibiting the Ndc80^488 complex-MT interaction could act either against the complex or against the MTs. To probe the specificity of compound B toward the Ndc80^488 complex, we examined its ability to inhibit MT binding of recombinant CLIP-170^488, a MT plus-end tracking protein.

On to `N#CC(=Cc1ccc(-c2ccc(C(=O)O)cc2)o1)c1nc2ccccc2[nH]1` [compound C, 4-5-2-1H-benzimidazol-2-yl-2-cyano-vinyl-furan-2-yl-benzoic acid], for which the Cell entry entry in data set [1] is listed as “inability of the compound to enter cells”. Besides, in data set [2], the “Effect on binding of CLIP-170^488 to taxol-stabilized MTs” value is given as “did not inhibit”.
